Here are results for two compounds from patent publication US7790896B2, “RNA-selective probes for live cell imaging of nuclear structure and function” (New York University, priority 2006, dated 2010).

The nature of data set [1]: Fluorescence spectrum in TE buffer of dyes selected from live cell imaging. Type of data set: physicochemical. The note with it: dye 10 μM in TE buffer.
The subject of data set [2] is Hela, A549, 3T3, and 3T3-L1 cells. In words: Dye cell-tolerability: cell viability and morphology changes observed. Format: cell-based, human, mouse. The note with it: 20 μM, after 8 hours. As for the experimental part:
Low cytotoxicity is one of the most important criteria for live cell imaging probes. All four compounds were tested at 20 μM, 10 μM, 5 μM, and 1 μM in Hela, A549, 3T3, and 3T3-L1 cells. Cell viability and morphology changes were observed during 2, 8, and 24 hours. Only dye E36 was toxic to A549, 3T3, and 3T3-L1 cells at high concentration (20 μM) after 8 hours.

In a further data set the test system is A549. Description: Phototoxicity test, MTS assay of irradiated cells. Format: cell-based, human. The note with it: dye 5 μM, irradiated 5 minutes, 24 hours incubation. The method, then:
Dye DMSO stock solutions were diluted by fresh medium into working concentration (5 μM). Cells were cultured in 96-well plate for 12 hours before experiments. The cell medium was exchanged with dye medium solutions. Cells were then incubated in at 37° C., in 5% CO2 for 25 minutes before being irradiated by fluorescent light using the appropriate working filter (FITC for E36 and E144; Cy3 for F22) for 5 minutes. The plates were then incubated at 37° C. in 5% CO2 The cell viability was measured by MTS assay after 5 and 24 hours following the cytotoxicity measurement procedure. Duplicated experiments have been tested.
Phototoxicity is also an important factor in evaluating applicability of new fluorescent probes for live cell imaging. […] Nevertheless, it is desirable for the new imaging probes to be as non-phototoxic as possible. To investigate the phototoxicity of the present RNA-selective compounds, cellular viability of irradiated cells using MTS assay was assessed. Cells were incubated with dyes (E36, E144, and F22) in their working concentration (5 μM), and then irradiated with the appropriate filters using the fluorescent microscope (FITC for E36 and E144; Cy3 for F22). While light exposures used for imaging experiments are generally a few seconds long at most, cells were irradiated for 5 minutes for prolonged toxicity measurement. […]

As to `C[n+]1c(/C=C/c2c[nH]c3ccccc23)ccc2ccccc21` [Dye E36], in data set [1], the SPECTRUM EM amounted to 550 nm and the SPECTRUM EX is 450 nm. Besides, the “Toxicity (cell viability and morphology changes)” value in data set [2] is recorded as “toxic”.
For the compound `COc1ccc2c(ccc(/C=C/c3ccc(N(C)C)cc3)[n+]2C)c1` [Dye F22], the Phototoxicity entry in the data set on A549 is “not A549”.
